Data taken from patent publication US9265773B2, “Tetracyclic heterocycle compounds and methods of use thereof for the treatment of viral diseases” (priority 2011, dated 2016).

Key:
[1] = test system: HCV replicon genotype 1a; assay: microbe, parasite or virus in culture; assay type: cell-based; settings: genotype 1a replicon cells, incubated 96 hours, NS3/4A ELISA readout
[2] = test system: HCV replicon genotype 1b; assay: microbe, parasite or virus in culture; assay type: cell-based; settings: genotype 1b replicon cells, incubated 96 hours, NS3/4A ELISA readout

Row | Structure (SMILES) | IC50 ([1]; Hepatitis C virus, 96 h) [nM] | IC50 ([2]; Hepatitis C virus, 96 h) [nM] | IC50 [1] [nM] | IC50 [2] [nM]
1 | CNC(=O)c1c(-c2ccc(F)cc2)oc2cc(N(C)S(C)(=O)=O)c(-c3ccc4c(c3)-c3cc5ccccc5n3CC(F)(F)CO4)cc12 [Compound 77, 5-(7,7-difluoro-7,8-dihydro-6H-benzo[2,3][1,5]oxazocino[5,4-a]indol-2-yl)-2-(4-fluorophenyl)-N-methyl-6-(N-methylmethylsulfonamido)benzofuran-3-carboxamide] | 10 | 11 |  | 
2 | CNC(=O)c1c(-c2ccc(F)cc2)oc2cc(N(C)S(C)(=O)=O)c(-c3ccc4c(c3)-c3cc5ccccc5n3CC(C)(O)CO4)cc12 (stereo not shown) [Compound 78, 2-(4-fluorophenyl)-5-(7-hydroxy-7-methyl-7,8-dihydro-6H-benzo[2,3][1,5]oxazocino[5,4-a]indol-2-yl)-N-methyl-6-(N-methylmethylsulfonamido)benzofuran-3-carboxamide] | 5.7 | 3.5 |  | 
3 | CNC(=O)c1c(-c2ccc(F)cc2)oc2cc(N(C)S(C)(=O)=O)c(-c3ccc4c(c3)-c3cc5ccccc5n3CC(O)(C(F)(F)F)CO4)cc12 (stereo not shown) [Compound 79, 2-(4-fluorophenyl)-5-(7-hydroxy-7-(trifluoromethyl)-7,8-dihydro-6H-benzo[2,3][1,5]oxazocino[5,4-a]indol-2-yl)-N-methyl-6-(N-methylmethylsulfonamido)benzofuran-3-carboxamide] | 10 | 11 |  | 
4 | CNC(=O)c1c(-c2ccc(F)cc2)oc2cc(N(C)S(C)(=O)=O)c(-c3ccc4c(c3)-c3cc5ccccc5n3CC(NCCN(C)C)CO4)cc12 (stereo not shown) [Compound 80, 5-(7-((2-(dimethylamino)ethyl)amino)-7,8-dihydro-6H-benzo[2,3][1,5]oxazocino[5,4-a]indol-2-yl)-2-(4-fluorophenyl)-N-methyl-6-(N-methylmethylsulfonamido)benzofuran-3-carboxamide] | 18 | 15 |  | 
5 | CNC(=O)c1c(-c2ccc(F)cc2)oc2cc(N(C)S(C)(=O)=O)c(-c3ccc4c(c3)-c3cc5ccccc5n3CC(NCCCN(C)C)CO4)cc12 (stereo not shown) [Compound 81] | 36 | 22 |  | 
6 | CNC(=O)c1c(-c2ccc(F)cc2)oc2cc(N(C)S(C)(=O)=O)c(-c3ccc4c(c3)-c3cc5ccccc5n3CC(NC3CCN(C)CC3)CO4)cc12 (stereo not shown) [Compound 82] | 15 | 11 |  | 
7 | CNC(=O)c1c(-c2ccc(F)cc2)oc2cc(N(C)S(C)(=O)=O)c(-c3ccc4c(c3)-c3cc5ccccc5n3CC(NCCN3CCOCC3)CO4)cc12 (stereo not shown) [Compound 83] | 15 | 12 |  | 
8 | CNC(=O)c1c(-c2ccc(F)cc2)oc2cc(N(C)S(C)(=O)=O)c(-c3ccc4c(c3)-c3cc5ccccc5n3CC(NCCN3CCCC3)CO4)cc12 (stereo not shown) [Compound 84] | 26 | 16 |  | 
9 | CNC(=O)c1c(-c2ccc(F)cc2)oc2cc(N(C)S(C)(=O)=O)c(-c3ccc4c(c3)-c3cc5ccccc5n3CC(NCCO)CO4)cc12 (stereo not shown) [Compound 85] | 13 | 7.7 |  | 
10 | CNC(=O)c1c(-c2ccc(F)cc2)oc2cc(N(C)S(C)(=O)=O)c(-c3ccc4c(c3)-c3cc5ccccc5n3CC(N(C)CCO)CO4)cc12 (stereo not shown) [Compound 86] | 17 | 12 |  | 
11 | CNC(=O)c1c(-c2ccc(F)cc2)oc2cc(N(C)S(C)(=O)=O)c(-c3ccc4c(n3)-c3cc5c(F)cccc5n3C(CO)O4)cc12 (stereo not shown) [Compound 87, 5-(11-fluoro-6-(hydroxymethyl)-6H-pyrido[2′,3′:5,6][1,3]oxazino[3,4-a]indol-2-yl)-2-(4-fluorophenyl)-N-methyl-6-(N-methylmethylsulfonamido)benzofuran-3-carboxamide] | 3 | 3.3 |  | 
12 | CNC(=O)c1c(-c2ccc(F)cc2)oc2cc(N(C)S(C)(=O)=O)c(-c3ccc4c(n3)-c3cc5c(F)cccc5n3C(CO)O4)cc12 (stereo not shown) [Compound 88, 5-(11-fluoro-6-(hydroxymethyl)-6H-pyrido[2′,3′:5,6][1,3]oxazino[3,4-a]indol-2-yl)-2-(4-fluorophenyl)-N-methyl-6-(N-methylmethylsulfonamido)benzofuran-3-carboxamide] |  |  | 2.7 | 2.6
13 | CNC(=O)c1c(-c2ccc(F)cc2)oc2cc(N(C)S(C)(=O)=O)c(-c3cc4c(cn3)OC(CO)n3c-4cc4c(F)cccc43)cc12 (stereo not shown) [Compound 89] |  |  | 1.1 | 0.9
14 | CNC(=O)c1c(-c2ccc(F)cc2)oc2cc(N(C)S(C)(=O)=O)c(-c3cc4c(cn3)OC(CO)n3c-4cc4c(F)cccc43)cc12 (stereo not shown) [Compound 90] |  |  | 5.5 | 2.4
15 | CNC(=O)c1c(-c2ccc(F)cc2)oc2cc(N(C)S(C)(=O)=O)c(-c3ccc4c(n3)-c3cc5c(F)cccc5n3C(C)(CO)O4)cc12 (stereo not shown) [Compound 91] | 3.3 | 7.4 |  | 
16 | CNC(=O)c1c(-c2ccc(F)cc2)oc2cc(N(C)S(C)(=O)=O)c(-c3ccc4c(n3)-c3cc5c(F)cccc5n3C(C)(CO)O4)cc12 (stereo not shown) [Compound 92] |  |  | 4.2 | 6.5

Row | Structure (SMILES) | IC50 ([1]; Hepatitis C virus, 96 h) [nM] | IC50 ([2]; Hepatitis C virus, 96 h) [nM] | IC50 [1] [nM] | IC50 [2] [nM]
17 | CNC(=O)c1c(-c2ccc(F)cc2)oc2cc(N(C)S(C)(=O)=O)c(-c3ccc4c(n3)-c3cc5c(F)cccc5n3C(C(OC)OC)O4)cc12 (stereo not shown) [Compound 93] | 4.4 | 6 |  | 
18 | CNC(=O)c1c(-c2ccc(F)cc2)oc2cc(N(C)S(C)(=O)=O)c(-c3ccc4c(n3)-c3cc5c(F)cccc5n3C(CO)(CO)O4)cc12 [Compound 94] | 2.3 | 5.6 |  | 
19 | CNC(=O)c1c(-c2ccc(F)cc2)oc2cc(N(C)S(C)(=O)=O)c(-c3ccc4c(n3)-c3cc5c(F)cccc5n3C(COC)O4)cc12 (stereo not shown) [Compound 95] | 3.2 | 5.3 |  | 
20 | CNC(=O)c1c(-c2ccc(F)cc2)oc2cc(N(C)S(C)(=O)=O)c(-c3ccc4c(n3)-c3cc5c(F)cccc5n3C(COC)O4)cc12 (stereo not shown) [Compound 96] |  |  | 4.1 | 5.1
21 | CNC(=O)c1c(-c2ccc(F)cc2)oc2cc(N(C)S(C)(=O)=O)c(-c3ccc4c(n3)-c3cc5c(F)cccc5n3C3(COC3)O4)cc12 [Compound 97] | 2.9 | 4.4 |  | 
22 | CNC(=O)c1c(-c2ccc(F)cc2)oc2cc(N(C)S(C)(=O)=O)c(-c3ccc4c(n3)-c3cc5c(F)cccc5n3C(CF)O4)cc12 (stereo not shown) [Compound 98, 5-(11-fluoro-6-(fluoromethyl)-6H-pyrido[2′,3′:5,6][1,3]oxazino[3,4-a]indol-2-yl)-2-(4-fluorophenyl)-N-methyl-6-(N-methylmethylsulfonamido)benzofuran-3-carboxamide] | 3.9 | 6.3 |  | 
23 | CNC(=O)c1c(-c2ccc(F)cc2)oc2cc(N(C)S(C)(=O)=O)c(-c3ccc4c(n3)-c3cc5c(F)cccc5n3C(CCO)O4)cc12 (stereo not shown) [Compound 99, 5-(11-fluoro-6-(2-hydroxyethyl)-6H-pyrido[2′,3′:5,6][1,3]oxazino[3,4-a]indol-2-yl)-2-(4-fluorophenyl)-N-methyl-6-(N-methylmethylsulfonamido)benzofuran-3-carboxamide] | 1.9 | 4.6 |  | 
24 | CNC(=O)c1c(-c2ccc(F)cc2)oc2cc(N(C)S(C)(=O)=O)c(-c3ccc4c(n3)-c3cc5c(F)cccc5n3C(CCO)O4)cc12 (stereo not shown) [Compound 100, 5-(11-fluoro-6-(2-hydroxyethyl)-6H-pyrido[2′,3′:5,6][1,3]oxazino[3,4-a]indol-2-yl)-2-(4-fluorophenyl)-N-methyl-6-(N-methylmethylsulfonamido)benzofuran-3-carboxamide] |  |  | 3.3 | 3.6
25 | CNC(=O)c1c(-c2ccc(F)cc2)oc2cc(N(C)S(C)(=O)=O)c(-c3ccc4c(n3)-c3cc5c(F)cccc5n3C(C(C)(C)O)O4)cc12 (stereo not shown) [Compound 101, 5-(11-fluoro-6-(2-hydroxypropan-2-yl)-6H-pyrido[2′,3′,5,6][1,3]oxazino[3,4-a]indol-2-yl)-2-(4-fluorophenyl)-N-methyl-6-(N-methylmethylsulfonamido)benzofuran-3-carboxamide] | 5.8 | 8.7 |  | 
26 | CNC(=O)c1c(-c2ccc(F)cc2)oc2cc(N(C)S(C)(=O)=O)c(-c3ccc4c(n3)-c3cc5c(F)cccc5n3[C@H](COC(=O)[C@@H](N)C(C)C)O4)cc12 [Compound 102, (S)—((S)-11-fluoro-2-(2-(4-fluorophenyl)-3-(methylcarbamoyl)-6-(N-methylmethylsulfonamido)benzofuran-5-yl)-6H-pyrido[2′,3′:5,6][1,3]oxazino[3,4-a]indol-6-yl)methyl 2-amino-3-methylbutanoate] | 3.9 | 4.3 |  | 
27 | CNC(=O)c1c(-c2ccc(F)cc2)oc2cc(N(C)S(C)(=O)=O)c(-c3ccc4c(n3)-c3cc5c(F)cccc5n3C(COC(=O)[C@@H](NC(=O)OC)C(C)C)O4)cc12 (stereo partly shown) [Compound 103] | 3.3 | 6.9 |  | 
28 | CNC(=O)c1c(-c2ccc(F)cc2)oc2cc(N(C)S(C)(=O)=O)c(-c3ccc4c(n3)-c3cc5c(F)cccc5n3C(COC(=O)[C@@H]3CCCN3C(=O)OC)O4)cc12 (stereo partly shown) [Compound 104] | 2.4 | 4.8 |  | 
29 | CNC(=O)c1c(-c2ccc(F)cc2)oc2cc(N(C)S(C)(=O)=O)c(-c3ccc4c(n3)-c3cc5c(F)cccc5n3C(C(N)=O)O4)cc12 (stereo not shown) [Compound 105, 11-fluoro-2-(2-(4-fluorophenyl)-3-(methylcarbamoyl)-6-(N-methylmethylsulfonamido)benzofuran-5-yl)-6H-pyrido[2′,3′:5,6][1,3]oxazino[3,4-a]indole-6-carboxamide] |  |  | 1.4 | 0.9
30 | CNC(=O)c1c(-c2ccc(F)cc2)oc2cc(N(C)S(C)(=O)=O)c(-c3ccc4c(n3)-c3cc5c(F)cccc5n3C(C(N)=O)O4)cc12 (stereo not shown) [Compound 106, 11-fluoro-2-(2-(4-fluorophenyl)-3-(methylcarbamoyl)-6-(N-methylmethylsulfonamido)benzofuran-5-yl)-6H-pyrido[2′,3′:5,6][1,3]oxazino[3,4-a]indole-6-carboxamide] |  |  | 5.5 | 2.4
31 | CCNC(=O)C1Oc2ccc(-c3cc4c(C(=O)NC)c(-c5ccc(F)cc5)oc4cc3N(C)S(C)(=O)=O)nc2-c2cc3c(F)cccc3n21 (stereo not shown) [Compound 107] |  |  | 1.5 | 0.7
32 | CCNC(=O)C1Oc2ccc(-c3cc4c(C(=O)NC)c(-c5ccc(F)cc5)oc4cc3N(C)S(C)(=O)=O)nc2-c2cc3c(F)cccc3n21 (stereo not shown) [Compound 108] |  |  | 14 | 2.4
